ChEMBL document CHEMBL1154040, “Synthesis and evaluation of novel F-18 labeled fluoroarylvaline derivatives: potential PET imaging agents for tumor detection” (Bioorg Med Chem Lett, 2009)

Tested on: Heart
Test: Biodistribution in S180 tumor-bearing KM mouse heart assessed per gram of tissue weight at 240 to 370 kBq, iv after 30 mins
Format: ADME, organism-based
Conditions: in vivo, 0.5 h

Row | SMILES | Drug uptake
1 | CC(C)[C@H](NC(=O)c1ccc([N+](=O)[O-])cc1[18F])C(=O)O | 0.29 %ID

Tested on: Heart
Test: Biodistribution in S180 tumor-bearing KM mouse heart assessed per gram of tissue weight at 240 to 370 kBq, iv after 5 mins
Format: ADME, organism-based
Conditions: in vivo

Row | SMILES | Drug uptake
2 | CC(C)[C@H](NC(=O)c1ccc([N+](=O)[O-])cc1[18F])C(=O)O | 1.07 %ID

Tested on: Blood
Test: Biodistribution in S180 tumor-bearing KM mouse blood assessed per gram of tissue weight at 240 to 370 kBq, iv after 120 mins
Format: ADME, organism-based
Conditions: in vivo, 2 h

Row | SMILES | Drug uptake
3 | CC(C)[C@H](NC(=O)c1ccc([N+](=O)[O-])cc1[18F])C(=O)O | 0.06 %ID

Tested on: Blood
Test: Biodistribution in S180 tumor-bearing KM mouse blood assessed per gram of tissue weight at 240 to 370 kBq, iv after 60 mins
Format: ADME, organism-based
Conditions: in vivo, 1 h

Row | SMILES | Drug uptake
4 | CC(C)[C@H](NC(=O)c1ccc([N+](=O)[O-])cc1[18F])C(=O)O | 0.15 %ID

Tested on: Blood
Test: Biodistribution in S180 tumor-bearing KM mouse blood assessed per gram of tissue weight at 240 to 370 kBq, iv after 30 mins
Format: ADME, organism-based
Conditions: in vivo, 0.5 h

Row | SMILES | Drug uptake
5 | CC(C)[C@H](NC(=O)c1ccc([N+](=O)[O-])cc1[18F])C(=O)O | 0.24 %ID

Tested on: Blood
Test: Biodistribution in S180 tumor-bearing KM mouse blood assessed per gram of tissue weight at 240 to 370 kBq, iv after 15 mins
Format: ADME, organism-based
Conditions: in vivo, 0.25 h

Row | SMILES | Drug uptake
6 | CC(C)[C@H](NC(=O)c1ccc([N+](=O)[O-])cc1[18F])C(=O)O | 1.27 %ID

Tested on: Blood
Test: Biodistribution in S180 tumor-bearing KM mouse blood assessed per gram of tissue weight at 240 to 370 kBq, iv after 5 mins
Format: ADME, organism-based
Conditions: in vivo

Row | SMILES | Drug uptake
7 | CC(C)[C@H](NC(=O)c1ccc([N+](=O)[O-])cc1[18F])C(=O)O | 2.43 %ID

Tested on: Brain
Test: Biodistribution in S180 tumor-bearing KM mouse brain assessed per gram of tissue at 240 to 370 kBq, iv after 30 mins
Format: ADME, organism-based
Conditions: in vivo, 0.5 h

Row | SMILES | Drug uptake
8 | CC(C)[C@H](NC(=O)c1ccc([N+](=O)[O-])cc1[18F])C(=O)O | 0.04 %ID

Tested on: Brain
Test: Biodistribution in S180 tumor-bearing KM mouse brain assessed per gram of tissue at 240 to 370 kBq, iv after 60 mins
Format: ADME, organism-based
Conditions: in vivo, 1 h

Row | SMILES | Drug uptake
9 | CC(C)[C@H](NC(=O)c1ccc([N+](=O)[O-])cc1[18F])C(=O)O | 0.03 %ID

Tested on: Brain
Test: Biodistribution in S180 tumor-bearing KM mouse brain assessed per gram of tissue at 240 to 370 kBq, iv after 120 mins
Format: ADME, organism-based
Conditions: in vivo, 2 h

Row | SMILES | Drug uptake
10 | CC(C)[C@H](NC(=O)c1ccc([N+](=O)[O-])cc1[18F])C(=O)O | 0.01 %ID

Tested on: not listed separately
Test: Biodistribution in S180 tumor present in KM mouse assessed per gram of tissue at 240 to 370 kBq, iv after 5 mins
Format: ADME, organism-based, Neoplasm
Conditions: in vivo

Row | SMILES | Drug uptake
11 | CC(C)[C@H](NC(=O)c1ccc([N+](=O)[O-])cc1[18F])C(=O)O | 1.37 %ID

Tested on: not listed separately
Test: Biodistribution in S180 tumor present in KM mouse assessed per gram of tissue at 240 to 370 kBq, iv after 30 mins
Format: ADME, organism-based, Neoplasm
Conditions: in vivo, 0.5 h

Row | SMILES | Drug uptake
12 | CC(C)[C@H](NC(=O)c1ccc([N+](=O)[O-])cc1[18F])C(=O)O | 0.56 %ID

Tested on: not listed separately
Test: Biodistribution in S180 tumor present in KM mouse assessed per gram of tissue at 240 to 370 kBq, iv after 120 mins
Format: ADME, organism-based, Neoplasm
Conditions: in vivo, 2 h

Row | SMILES | Drug uptake
13 | CC(C)[C@H](NC(=O)c1ccc([N+](=O)[O-])cc1[18F])C(=O)O | 0.08 %ID

Tested on: not listed separately
Test: Ratio of drug level in S180 tumor to blood in KM mouse at 240 to 370 kBq, iv after 15mins
Format: ADME, organism-based
Conditions: tumour, 0.25 h

Row | SMILES | tumor/blood ratio
14 | CC(C)[C@H](NC(=O)c1ccc([N+](=O)[O-])cc1[18F])C(=O)O | 0.72

Tested on: not listed separately
Test: Ratio of drug level in S180 tumor to blood in KM mouse at 240 to 370 kBq, iv after 60 mins
Format: ADME, organism-based
Conditions: tumour, 1 h

Row | SMILES | tumor/blood ratio
15 | CC(C)[C@H](NC(=O)c1ccc([N+](=O)[O-])cc1[18F])C(=O)O | 1.83

Tested on: not listed separately
Test: Ratio of drug level in S180 tumor to brain KM mouse at 240 to 370 kBq, iv after 5 mins
Format: ADME, organism-based
Conditions: in vivo

Row | SMILES | tumor/brain ratio
16 | CC(C)[C@H](NC(=O)c1ccc([N+](=O)[O-])cc1[18F])C(=O)O | 9.38

Tested on: not listed separately
Test: Ratio of drug level in S180 tumor to brain KM mouse at 240 to 370 kBq, iv after 15 mins
Format: ADME, organism-based
Conditions: in vivo, 0.25 h

Row | SMILES | tumor/brain ratio
17 | CC(C)[C@H](NC(=O)c1ccc([N+](=O)[O-])cc1[18F])C(=O)O | 10.4

Tested on: not listed separately
Test: Ratio of drug level in S180 tumor to brain KM mouse at 240 to 370 kBq, iv after 30 mins
Format: ADME, organism-based
Conditions: in vivo, 0.5 h

Row | SMILES | tumor/brain ratio
18 | CC(C)[C@H](NC(=O)c1ccc([N+](=O)[O-])cc1[18F])C(=O)O | 13.3

Tested on: not listed separately
Test: Ratio of drug level in S180 tumor to brain KM mouse at 240 to 370 kBq, iv after 60 mins
Format: ADME, organism-based
Conditions: in vivo, 1 h

Row | SMILES | tumor/brain ratio
19 | CC(C)[C@H](NC(=O)c1ccc([N+](=O)[O-])cc1[18F])C(=O)O | 9.99

Tested on: not listed separately
Test: Ratio of drug level in S180 tumor to brain KM mouse at 240 to 370 kBq, iv after 120 mins
Format: ADME, organism-based
Conditions: in vivo, 2 h

Row | SMILES | tumor/brain ratio
20 | CC(C)[C@H](NC(=O)c1ccc([N+](=O)[O-])cc1[18F])C(=O)O | 6.9

Tested on: not listed separately
Test: Ratio of drug level in S180 tumor to muscleKM mouse at 240 to 370 kBq, iv after 5 mins
Format: ADME, organism-based, KM
Conditions: in vivo

Row | SMILES | tumor/muscle ratio
21 | CC(C)[C@H](NC(=O)c1ccc([N+](=O)[O-])cc1[18F])C(=O)O | 1.38

Tested on: not listed separately
Test: Ratio of drug level in S180 tumor to muscleKM mouse at 240 to 370 kBq, iv after 30 mins
Format: ADME, organism-based, KM
Conditions: in vivo, 0.5 h

Row | SMILES | tumor/muscle ratio
22 | CC(C)[C@H](NC(=O)c1ccc([N+](=O)[O-])cc1[18F])C(=O)O | 2.62
